Laboratory results taken from PMC5295242, “Synthesis of Natural O-Linked Carba-Disaccharides, (+)- and (−)-Pericosine E, and Their Analogues as α-Glucosidase Inhibitors” (Marine Drugs, 2017).

Legend:
[1] = target: β-glucosidase (sweet almond); test: β-glucosidase inhibition assay (p-nitrophenyl β-D-glucopyranoside substrate); format: biochemical; settings: sweet almond enzyme; NI = no inhibition
Procedure: (§1) Eight samples synthesized here were used in a biological assay against three glycosidases, namely α-glucosidase (yeast), β-glucosidase (sweet almond), and α-mannosidase (Jack bean).
(§2) After incubation for 20 min at 37 °C, the reaction was interrupted by the addition of 0.5 M sodium carbonate (100 μL). The amount of p-nitrophenol liberated was measured colorimetrically at 400 nm (optical density at 400 nm: ODtest). […] Assays for β-glucosidase and α-mannosidase were carried out as outlined above using p-nitrophenyl β-D-glucopyranoside and α-D-mannopyranoside as the substrates.
(§3) Assays on β-glucosidase and α-mannnosidase inhibition of synthesized carbadisaccharides 6 and 21–23 were carried out in a similar fashion.

[2] = target: T1, α-mannosidase (Jack bean) (Canavalia ensiformis, UniProt C0HJB3); test: α-mannosidase inhibition assay (p-nitrophenyl α-D-mannopyranoside substrate); format: biochemical; settings: Jack bean enzyme; NI = no inhibition
T1 construct: purchased Sigma-Aldrich Co. LLC. lot; 055K7047 (catalogue number not given)
T1 sequence (C0HJB3 1-981): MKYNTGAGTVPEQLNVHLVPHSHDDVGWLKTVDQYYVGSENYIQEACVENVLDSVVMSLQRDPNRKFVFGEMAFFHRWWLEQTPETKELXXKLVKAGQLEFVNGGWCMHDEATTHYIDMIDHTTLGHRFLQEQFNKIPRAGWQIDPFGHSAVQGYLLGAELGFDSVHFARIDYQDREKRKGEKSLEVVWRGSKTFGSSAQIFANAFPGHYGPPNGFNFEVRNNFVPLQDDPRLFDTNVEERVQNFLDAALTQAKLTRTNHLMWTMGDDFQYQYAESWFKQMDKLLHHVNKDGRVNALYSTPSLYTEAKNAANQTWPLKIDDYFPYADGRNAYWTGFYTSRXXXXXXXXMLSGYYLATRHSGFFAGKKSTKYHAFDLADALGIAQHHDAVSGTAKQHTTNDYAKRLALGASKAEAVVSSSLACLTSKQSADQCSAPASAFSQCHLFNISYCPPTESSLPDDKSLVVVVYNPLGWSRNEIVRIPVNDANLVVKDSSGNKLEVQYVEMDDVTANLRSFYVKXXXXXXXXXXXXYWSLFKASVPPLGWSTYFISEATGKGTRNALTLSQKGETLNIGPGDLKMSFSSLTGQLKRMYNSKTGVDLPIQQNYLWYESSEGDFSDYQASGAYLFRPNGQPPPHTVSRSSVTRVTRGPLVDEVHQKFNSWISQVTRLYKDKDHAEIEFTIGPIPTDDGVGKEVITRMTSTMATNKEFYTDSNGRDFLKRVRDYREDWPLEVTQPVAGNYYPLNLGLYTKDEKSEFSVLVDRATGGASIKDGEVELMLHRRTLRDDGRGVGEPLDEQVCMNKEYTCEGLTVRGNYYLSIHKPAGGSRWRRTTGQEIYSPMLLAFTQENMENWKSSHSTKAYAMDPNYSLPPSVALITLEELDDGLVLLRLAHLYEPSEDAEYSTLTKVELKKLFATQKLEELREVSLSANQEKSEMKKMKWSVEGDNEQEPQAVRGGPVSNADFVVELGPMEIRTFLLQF
Procedure: as §1, §2, §3

[3] = target: α-glucosidase (yeast) (Saccharomyces cerevisiae, UniProt P53341); test: α-glucosidase inhibition assay (p-nitrophenyl α-D-glucopyranoside substrate); format: biochemical; settings: yeast enzyme; relative to positive control DNJ
Procedure: as §1, §2

[4] = system: melanoma cell line UACC-62; set-up: method as in PMID 24285637, PMID 26928999; settings: cited from earlier work

α-glucosidase (yeast), sequence (P53341 whole entry): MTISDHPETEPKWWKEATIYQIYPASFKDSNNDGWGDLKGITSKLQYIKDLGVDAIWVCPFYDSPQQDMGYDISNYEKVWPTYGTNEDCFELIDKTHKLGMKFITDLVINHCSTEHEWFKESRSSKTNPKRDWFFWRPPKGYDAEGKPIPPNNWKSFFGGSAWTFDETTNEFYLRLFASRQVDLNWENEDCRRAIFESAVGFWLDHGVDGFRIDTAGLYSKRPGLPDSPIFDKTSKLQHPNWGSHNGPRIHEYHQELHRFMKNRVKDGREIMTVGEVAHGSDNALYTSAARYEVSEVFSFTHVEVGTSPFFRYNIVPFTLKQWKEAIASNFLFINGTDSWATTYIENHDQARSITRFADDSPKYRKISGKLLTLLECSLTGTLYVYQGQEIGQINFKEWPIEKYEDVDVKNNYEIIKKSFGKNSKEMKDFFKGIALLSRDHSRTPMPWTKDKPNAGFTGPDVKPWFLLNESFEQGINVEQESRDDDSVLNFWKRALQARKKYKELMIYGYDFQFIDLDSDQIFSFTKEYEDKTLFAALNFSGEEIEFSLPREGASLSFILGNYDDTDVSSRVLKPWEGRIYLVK

Row | Structure (SMILES) | IC50 [1] [mM] | IC50 [2] [mM] | α-glucosidase inhibitory potency relative to deoxynojirimycin (DNJ), fold/times [3] | inhibition against melanoma cell line UACC-62 [4]
1 | COC(=O)C1=C[C@H](O)[C@H](O)[C@H](O[C@H]2C(C(=O)OC)=C[C@@H](O)[C@@H](O)[C@@H]2O)[C@H]1Cl [(+)-21] | > 10 | > 10 |  | 
2 | COC(=O)C1=C[C@H](O)[C@H](O)[C@H](O)[C@@H]1O[C@H]1[C@@H](O)[C@@H](O)C=C(C(=O)OC)[C@@H]1Cl [(+)-22] | > 10 | > 10 |  | 
3 | COC(=O)C1=C[C@H](O)[C@H](O)[C@@H](O)[C@@H]1O[C@H]1[C@@H](O)[C@@H](O)C=C(C(=O)OC)[C@@H]1Cl [(+)-23] | > 10 | > 10 |  | 
4 | COC(=O)C1=C[C@H](O)[C@H](O)[C@H](O[C@H]2C(C(=O)OC)=C[C@@H](O)[C@@H](O)[C@H]2O)[C@H]1Cl [(+)-pericosine E (6)] | > 10 | > 10 |  | 
5 | COC(=O)C1=C[C@@H](O)[C@@H](O)[C@@H](O[C@@H]2C(C(=O)OC)=C[C@H](O)[C@H](O)[C@H]2O)[C@@H]1Cl [(−)-21] | > 10 | > 10 | one-third | 
6 | COC(=O)C1=C[C@@H](O)[C@@H](O)[C@@H](O[C@H]2C(C(=O)OC)=C[C@@H](O)[C@@H](O)[C@H]2O)[C@@H]1Cl [(−)-22] | > 10 | > 10 |  | 
7 | COC(=O)C1=C[C@@H](O)[C@@H](O)[C@@H](O[C@H]2C(C(=O)OC)=C[C@@H](O)[C@@H](O)[C@@H]2O)[C@@H]1Cl [(−)-23] | > 10 | > 10 |  | 
8 | COC(=O)C1=C[C@@H](O)[C@@H](O)[C@@H](O[C@@H]2C(C(=O)OC)=C[C@H](O)[C@H](O)[C@@H]2O)[C@@H]1Cl [(−)-pericosine E (6), (3R,4R,5R,6R)-methyl 6-chloro-3,4-dihydroxy-5-{[(1R,4S,5S,6S)-4,5,6-trihydroxy-2-(methoxycarbonyl)cyclohex-2-en-1-yl]oxy}cyclohex-1-enecarboxylate] | > 10 | > 10 | one-third | 
11 | C=C[C@@H]1C[C@H](C)C[C@H](C)[C@H]1c1c(O)ccn(O[C@@H]2C(C(=O)OC)=C[C@@H](O)[C@@H](O)[C@H]2O)c1=O [maximiscin] |  |  |  | potent inhibition
